System: amylase enzyme
Experiment: Amylase inhibition (salivary and intestinal amylase)
Assay type: biochemical
Details: amylase present in saliva and in the gut

Effect on amylase enzyme: blocks the amylase enzyme
Structure (SMILES): O=C(/C=C/c1ccc(O)c(O)c1)O[C@@H]1C[C@](O)(C(=O)O)C[C@@H](O)[C@H]1O [chlorogenic acid]
